{"source": "patent US20170334899A1", "about": "“AMINO-SUBSTITUTED ISOTHIAZOLES” (Bayer Pharma Aktiengesellschaft, priority 2014, published 2017)"}
{"molecular_target": "T1, human kinase Mps-1 (Homo sapiens, UniProt P33981)", "T1 construct": "N-terminally GST-tagged human full length recombinant Mps-1 kinase; GST (N); purchased Invitrogen, Karslruhe, Germany PV4071", "T1 sequence (P33981 1-857)": "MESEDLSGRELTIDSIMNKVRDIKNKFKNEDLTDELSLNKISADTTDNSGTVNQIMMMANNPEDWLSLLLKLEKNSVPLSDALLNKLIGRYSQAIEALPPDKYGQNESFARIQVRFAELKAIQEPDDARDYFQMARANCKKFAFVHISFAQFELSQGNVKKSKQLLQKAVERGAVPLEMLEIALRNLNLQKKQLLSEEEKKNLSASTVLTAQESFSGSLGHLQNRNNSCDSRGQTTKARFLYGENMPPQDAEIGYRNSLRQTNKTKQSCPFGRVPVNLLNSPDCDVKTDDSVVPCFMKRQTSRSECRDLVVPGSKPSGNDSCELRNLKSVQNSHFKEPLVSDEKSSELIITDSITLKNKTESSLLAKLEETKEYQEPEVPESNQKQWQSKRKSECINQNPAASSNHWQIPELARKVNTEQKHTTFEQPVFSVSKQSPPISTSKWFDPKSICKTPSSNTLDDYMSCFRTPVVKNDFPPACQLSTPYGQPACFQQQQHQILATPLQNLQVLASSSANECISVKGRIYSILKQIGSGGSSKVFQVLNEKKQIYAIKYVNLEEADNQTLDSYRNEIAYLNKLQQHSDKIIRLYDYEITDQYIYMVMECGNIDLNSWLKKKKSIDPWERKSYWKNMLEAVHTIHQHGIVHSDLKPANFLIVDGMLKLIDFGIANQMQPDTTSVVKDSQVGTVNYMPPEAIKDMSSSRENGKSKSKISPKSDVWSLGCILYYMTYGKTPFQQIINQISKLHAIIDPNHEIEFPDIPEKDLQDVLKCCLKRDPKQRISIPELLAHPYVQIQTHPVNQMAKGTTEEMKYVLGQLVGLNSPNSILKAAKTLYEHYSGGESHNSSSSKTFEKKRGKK", "test": "Mps-1 kinase assay (TR-FRET)", "assay_type": "biochemical", "settings": "Mps-1 TR-FRET kinase assay; avg; read-out: Mps1 avg (IC50 [mol/l])", "procedure,_shortened": "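GST-tagged full-length recombinant human Mps-1 (~0.5 nM) pre-incubated 15 min with compound, then reacted 60 min at 22 °C with 10 μM ATP and 1 μM biotinylated peptide in Hepes pH 7.7 buffer. EDTA-stopped; TR-FRET (Eu anti-phospho-Ser/Thr to SA-XLent) 665/620 nm ratio normalised to no-inhibitor and no-enzyme controls.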", "units": {"IC50": "µM"}}
{"smiles": "Cc1nsc(Nc2cnc(C(F)(F)F)cn2)c1C(=O)Nc1ccc(OC2CCN(CC(F)F)C2)nc1", "note": "(centres unmarked) [Example 296, N-(6-{[1-(2,2-difluoroethyl)pyrrolidin-3-yl]oxy}pyridin-3-yl)-3-methyl-5-{[5-(trifluoromethyl)pyrazin-2-yl]amino}-1,2-thiazole-4-carboxamide]", "IC50": "> 20"}
{"smiles": "Cc1nsc(Nc2cc(C#N)ccn2)c1C(=O)Nc1ccc(OC2CCNCC2)nc1", "note": "[Example 24, 5-[(4-Cyanopyridin-2-yl)amino]-3-methyl-N-[6-(piperidin-4-yloxy)pyridin-3-yl]-1,2-thiazole-4-carboxamide]", "IC50": 9}
{"smiles": "Cc1nsc(Nc2cc(C#N)ccn2)c1C(=O)Nc1ccc(OC2CCN(CC(F)F)CC2)nc1", "note": "[Example 263, 5-[(4-cyanopyridin-2-yl)amino]-N-(6-{[1-(2,2-difluoroethyl)piperidin-4-yl]oxy}pyridin-3-yl)-3-methyl-1,2-thiazole-4-carboxamide]", "IC50": "> 20"}
{"smiles": "Cc1nsc(Nc2cnc(C(F)(F)F)cn2)c1C(=O)Nc1ccc(F)c(OCC2CCN(C(CF)CF)CC2)c1", "note": "[Example 312, N-(3-{[1-(1,3-difluoropropan-2-yl)piperidin-4-yl]methoxy}-4-fluorophenyl)-3-methyl-5-{[5-(trifluoromethyl)pyrazin-2-yl]amino}-1,2-thiazole-4-carboxamide]", "IC50": "≥ 20"}
{"smiles": "Cc1nsc(Nc2cnc3ccccc3n2)c1C(=O)Nc1cccc(NS(=O)(=O)C2CCCN(C(=O)OCc3ccccc3)C2)c1", "note": "(centres unmarked) [Example 291, benzyl 3-{[3-({[3-methyl-5-(quinoxalin-2-ylamino)-1,2-thiazol-4-yl]carbonyl}amino)phenyl]sulfamoyl} piperidine-1-carboxylate]", "IC50": "> 20"}
{"smiles": "Cc1nsc(Nc2cnc(C(F)(F)F)cn2)c1C(=O)Nc1cccc(NC(=O)OC(C)(C)C)c1", "note": "[Example 284, 3-tert-butyl (3-{[(3-methyl-5-{[5-(trifluoromethyl)pyrazin-2-yl]amino}-1,2-thiazol-4-yl)carbonyl]amino}phenyl)carbamate]", "IC50": "> 20"}
{"smiles": "Cc1nsc(Nc2cnc3ccccc3n2)c1C(=O)Nc1ccc(OC2CCN(CC(F)(F)F)CC2)nc1", "note": "[Example 21, 3-Methyl-5-(quinoxalin-2-ylamino)-N-(6-{[1-(2,2,2-trifluoroethyl)piperidin-4-yl]oxy}-pyridin-3-yl)-1,2-thiazole-4-carboxamide]", "IC50": "≥ 20"}
{"smiles": "Cc1nsc(Nc2cnc(C(F)(F)F)cn2)c1C(=O)Nc1ccc(OCCCNCC(F)F)nc1", "note": "[Example 293, N-(6-{3-[(2,2-difluoroethyl)amino]propoxy}pyridin-3-yl)-3-methyl-5-{[5-(trifluoromethyl)pyrazin-2-yl]amino}-1,2-thiazole-4-carboxamide]", "IC50": "> 20"}
{"smiles": "Cc1nsc(Nc2cnc3ccccc3n2)c1C(=O)Nc1cccc(NS(=O)(=O)C2CN(CCF)C2)c1", "note": "[Example 287, N-[3-({[1-(2-fluoroethyl)azetidin-3-yl]sulfonyl}amino)phenyl]-3-methyl-5-(quinoxalin-2-ylamino)-1,2-thiazole-4-carboxamide]", "IC50": "> 20"}
{"smiles": "Cc1nsc(Nc2ccc(C#N)cn2)c1C(=O)Nc1cccc(C(=O)NC(C)C)c1", "note": "[Example 255, 5-[(5-cyanopyridin-2-yl)amino]-N-[3-(isopropylcarbamoyl)phenyl]-3-methyl-1,2-thiazole-4-carboxamide]", "IC50": "> 20"}
{"smiles": "CCN1CCN(C(=O)c2ccc(NC(=O)c3c(C)nsc3Nc3cncc(C(F)(F)F)n3)cc2)CC1", "note": "[Example 275, N-{4-[(4-ethylpiperazin-1-yl)carbonyl]phenyl}-3-methyl-5-{[6-(trifluoromethyl)pyrazin-2-yl]amino}-1,2-thiazole-4-carboxamide]", "IC50": "> 20"}
{"smiles": "CCNC(=O)c1cccc(NC(=O)c2c(C)nsc2Nc2cnc3ccccc3n2)c1", "note": "[Example 251, N-[3-(ethylcarbamoyl)phenyl]-3-methyl-5-(quinoxalin-2-ylamino)-1,2-thiazole-4-carboxamide]", "IC50": "> 20"}
{"smiles": "Cc1nsc(Nc2ccc(C#N)cn2)c1C(=O)Nc1cccc(C(=O)NC2CC2)c1", "note": "[Example 250, 5-[(5-cyanopyridin-2-yl)amino]-N-[3-(cyclopropylcarbamoyl)phenyl]-3-methyl-1,2-thiazole-4-carboxamide]", "IC50": "> 20"}
{"smiles": "Cc1nsc(Nc2cnc(C(F)(F)F)cn2)c1C(=O)Nc1ccc(F)c(OCCCN(C)CC(F)(F)F)c1", "note": "[Example 302, N-(4-fluoro-3-{3-[methyl(2,2,2-trifluoroethyl)amino]propoxy}phenyl)-3-methyl-5-{[5-(trifluoromethyl)pyrazin-2-yl]amino}-1,2-thiazole-4-carboxamide]", "IC50": "> 20"}
{"smiles": "Cc1nsc(Nc2cnc(C(F)(F)F)cn2)c1C(=O)Nc1ccc(OCCCO)nc1", "note": "[Example 279, N-[6-(3-hydroxypropoxy)pyridin-3-yl]-3-methyl-5-{[5-(trifluoromethyl)pyrazin-2-yl]amino}-1,2-thiazole-4-carboxamide]", "IC50": "> 20"}
{"smiles": "COC(=O)CCCc1ccc(NC(=O)c2c(C)nsc2Nc2cc(C#N)ccn2)cc1", "note": "[Example 256, methyl 4-{4-[({5-[(4-cyanopyridin-2-yl)amino]-3-methyl-1,2-thiazol-4-yl}carbonyl)amino]phenyl}butanoate]", "IC50": "> 20"}
{"smiles": "Cc1nsc(Nc2cnc(C(F)(F)F)cn2)c1C(=O)Nc1ccc(F)c(OCC2CCN(CCC(F)(F)F)CC2)c1", "note": "[Example 311, N-(4-fluoro-3-{[1-(3,3,3-trifluoropropyl)piperidin-4-yl]methoxy}phenyl)-3-methyl-5-{[5-(trifluoromethyl)pyrazin-2-yl]amino}-1,2-thiazole-4-carboxamide]", "IC50": "> 20"}
{"smiles": "Cc1nsc(Nc2cnc(C(F)(F)F)cn2)c1C(=O)Nc1ccc(OCCNCC(F)(F)F)nc1", "note": "[Example 322, 3-methyl-N-(6-{2-[(2,2,2-trifluoroethyl)amino]ethoxy}pyridin-3-yl)-5-{[5-(trifluoromethyl)pyrazin-2-yl]amino}-1,2-thiazole-4-carboxamide]", "IC50": "≥ 20"}
{"smiles": "CCN1CCN(C(=O)c2ccc(NC(=O)c3c(C)nsc3Nc3cnc(C(F)(F)F)cn3)cc2)CC1", "note": "[Example 261, N-{4-[(4-ethylpiperazin-1-yl)carbonyl]phenyl}-3-methyl-5-{[5-(trifluoromethyl)pyrazin-2-yl]amino}-1,2-thiazole-4-carboxamide]", "IC50": "> 20"}
{"smiles": "Cc1nsc(Nc2cnc(C(F)(F)F)cn2)c1C(=O)Nc1ccc(F)c(OC2CCN(CC(F)F)CC2)c1", "note": "[Example 265, N-(3-{[1-(2,2-difluoroethyl)piperidin-4-yl]oxy}-4-fluorophenyl)-3-methyl-5-{[5-(trifluoromethyl)pyrazin-2-yl]amino}-1,2-thiazole-4-carboxamide]", "IC50": "> 20"}
{"smiles": "Cc1nsc(Nc2cnc(C(F)(F)F)cn2)c1C(=O)Nc1ccc(N(C)C)c(OCCCN(C)CC(F)(F)F)c1", "note": "[Example 299, N-[4-(dimethylamino)-3-{3-[methyl(2,2,2-trifluoroethyl)amino]propoxy}phenyl]-3-methyl-5-{[5-(trifluoromethyl)pyrazin-2-yl]amino}-1,2-thiazole-4-carboxamide]", "IC50": "> 20"}
{"smiles": "Cc1nsc(Nc2cnc(C(F)(F)F)cn2)c1C(=O)Nc1ccc(OC2CCN(CCF)C2)nc1", "note": "(centres unmarked) [Example 295, N-(6-{[1-(2-fluoroethyl)pyrrolidin-3-yl]oxy}pyridin-3-yl)-3-methyl-5-{[5-(trifluoromethyl)pyrazin-2-yl]amino}-1,2-thiazole-4-carboxamide]", "IC50": "> 20"}
{"smiles": "Cc1nsc(Nc2cnc(C(F)(F)F)cn2)c1C(=O)Nc1ccc(F)c(OC2CCN(CC(F)(F)F)C2)c1", "note": "(centres unmarked) [Example 315, N-(4-fluoro-3-{[1-(2,2,2-trifluoroethyl)pyrrolidin-3-yl]oxy}phenyl)-3-methyl-5-{[5-(trifluoromethyl)pyrazin-2-yl]amino}-1,2-thiazole-4-carboxamide]", "IC50": "≥ 20"}
{"smiles": "Cc1nsc(Nc2cnc(C(F)(F)F)cn2)c1C(=O)Nc1ccc(OCCCNCCC(F)(F)F)nc1", "note": "[Example 294, 3-methyl-5-{[5-(trifluoromethyl)pyrazin-2-yl]amino}-N-(6-{3-[(3,3,3-trifluoropropyl)amino]propoxy}pyridin-3-yl)-1,2-thiazole-4-carboxamide]", "IC50": "> 20"}
{"smiles": "Cc1nsc(Nc2cnc3ccccc3n2)c1C(=O)Nc1cccc(NS(=O)(=O)C2CCN(CC(F)F)CC2)c1", "note": "[Example 282, N-[3-({[1-(2,2-difluoroethyl)piperidin-4-yl]sulfonyl}amino)phenyl]-3-methyl-5-(quinoxalin-2-ylamino)-1,2-thiazole-4-carboxamide]", "IC50": "> 20"}
{"smiles": "Cc1nsc(Nc2cnc(C(F)(F)F)cn2)c1C(=O)Nc1ccc(C(=O)N2CCN(CC(F)(F)F)CC2)cc1", "note": "[Example 260, 3-methyl-N-(4-{[4-(2,2,2-trifluoroethyl)piperazin-1-yl]carbonyl}phenyl)-5-{[5-(trifluoromethyl)pyrazin-2-yl]amino}-1,2-thiazole-4-carboxamide]", "IC50": "> 20"}
